Source: paper PMC7298712 (mBio, 2020)

Molecular target: Risk1 (RT0135; rRisk1 WT) (Rickettsia typhi, UniProt Q68XM2)
Format: biochemical

Risk1 (RT0135; rRisk1 WT), sequence (Q68XM2 1-707): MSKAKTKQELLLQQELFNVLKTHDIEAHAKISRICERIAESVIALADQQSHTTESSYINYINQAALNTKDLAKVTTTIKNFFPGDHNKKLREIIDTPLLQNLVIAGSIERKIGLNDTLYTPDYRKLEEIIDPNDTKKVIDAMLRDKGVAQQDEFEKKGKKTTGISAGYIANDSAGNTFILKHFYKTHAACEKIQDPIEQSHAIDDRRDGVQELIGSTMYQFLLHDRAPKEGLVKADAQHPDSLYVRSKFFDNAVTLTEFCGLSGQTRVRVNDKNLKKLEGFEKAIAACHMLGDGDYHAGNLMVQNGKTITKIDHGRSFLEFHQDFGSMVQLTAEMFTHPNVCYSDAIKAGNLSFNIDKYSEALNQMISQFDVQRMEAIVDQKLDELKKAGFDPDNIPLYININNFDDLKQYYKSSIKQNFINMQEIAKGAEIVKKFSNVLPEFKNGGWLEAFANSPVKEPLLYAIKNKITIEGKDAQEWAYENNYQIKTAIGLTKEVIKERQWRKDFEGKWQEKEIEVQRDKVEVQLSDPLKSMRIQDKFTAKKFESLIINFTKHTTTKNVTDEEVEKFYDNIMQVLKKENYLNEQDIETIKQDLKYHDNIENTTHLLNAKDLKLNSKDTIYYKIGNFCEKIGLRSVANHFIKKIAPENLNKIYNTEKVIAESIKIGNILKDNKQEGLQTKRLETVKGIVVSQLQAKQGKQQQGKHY

COC[C@H]1OC(=O)c2coc3c2[C@@]1(C)C1=C(C3=O)[C@@H]2CCC(=O)[C@@]2(C)C[C@H]1OC(C)=O [wortmannin]
ADP-Glo in vitro kinase assay, inhibition: preincubation with wortmannin significantly inhibited, in a concentration-dependent manner
